Test results taken from paper PMC7997574, “Lead Optimization of Benzoxazolone Carboxamides as Orally Bioavailable and CNS Penetrant Acid Ceramidase Inhibitors” (Journal of Medicinal Chemistry, 2020).
In brackets after ≈: the same amount, converted by molar mass. Where a name gives a salt, the structure may show the parent alone. Read-outs that look alike come from different tables or passages of the source.

How the values were obtained:
AC = biological target: T1, AC (Homo sapiens, UniProt Q13510); assay: Fluorogenic hAC assay on hAC-enriched lysate of HEK293 cells; assay type: biochemical; design: expressed in transfected cells; conditions: for fold more potent than 23e (hAC): vs 23e hAC IC50 = 0.363 μM
T1 sequence (Q13510 22-395): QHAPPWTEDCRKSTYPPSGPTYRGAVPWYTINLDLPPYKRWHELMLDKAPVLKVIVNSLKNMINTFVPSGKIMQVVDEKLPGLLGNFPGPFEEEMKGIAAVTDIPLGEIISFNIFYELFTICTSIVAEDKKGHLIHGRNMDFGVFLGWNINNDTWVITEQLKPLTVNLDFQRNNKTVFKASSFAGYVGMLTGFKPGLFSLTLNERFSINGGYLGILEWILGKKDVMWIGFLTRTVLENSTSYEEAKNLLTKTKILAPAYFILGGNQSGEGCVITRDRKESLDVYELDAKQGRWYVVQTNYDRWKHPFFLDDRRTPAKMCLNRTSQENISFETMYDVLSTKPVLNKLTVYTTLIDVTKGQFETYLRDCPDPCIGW
Description: HEK293 cells stably expressing hAC were grown in Dulbecco’s modified Eagle medium (DMEM) containing 10% FBS, 1% glutamine, 1 mM sodium pyruvate, and 500 μg mL^–1 G418. Cells were harvested, and pellets were stored at −80 °C until lysosomal-enriched lysate preparation. Cells were suspended in 20 mM Tris HCl (pH 7.5) with 0.32 M sucrose, sonicated, and centrifuged at 800 × g for 30 min at 4 °C. Supernatants were then centrifuged at 12000 × g for 30 min at 4 °C. Pellets were resuspended in PBS (pH 7.4) and subjected to three freeze–thaw cycles at −80 °C. The suspension was finally centrifuged at 105000 × g for 1 h at 4 °C, and protein concentration was measured in the supernatant with the bicinchoninic acid based protein assay. This hAC-enriched preparation allowed us to further optimize the enzymatic assay and to use small amounts of lysate (2 μg per well) at a 5 μM substrate (Rbm14–12) around its KM (KM = 5.0 μM).
The assay was performed in Optiplate 96-well black plates, with each reaction well containing a mixture of 25 mM NaOAc buffer (pH 4.5) and a fixed amount of protein (2 μg) in a volume of 85 μL. After 10 min of preincubation with test compounds (diluted 20× from DMSO stock solutions at different concentrations), the fluorogenic probe was added (diluted 40× from EtOH stock solution, final concentration 5 μM). After 3 h of incubation at 37 °C, reactions were stopped with 50 μL of MeOH and 100 μL of a 2.5 mg mL^–1 NaIO4 fresh solution in 100 mM glycine/NaOH buffer (pH 10.6). The plates were further incubated for 2 h at 37 °C in the dark, and fluorescence intensities were measured at excitation/emission wavelengths of 355/460 nm. Negative control samples consisted of the same incubation mixture in the absence of protein-enriched extracts. Data were plotted as a function of compound concentrations. IC50 values were calculated by nonlinear regression analysis using GraphPad Prism 5 (GraphPad Software Inc., CA, USA) applying a standard slope curve fitting. The reported IC50 values are the mean of at least three independent experiments performed in three technical replicates.

[1] = Chemical stability assay in PBS pH 7.4; assay type: physicochemical; conditions: phosphate-buffered saline, read-out: chemical stability t1/2
Description: Chemical stability of selected compounds was evaluated under physiological pH conditions (0.01 M phosphate-buffered saline, pH 7.4) for up to 8 h. The buffer was added with 10% MeCN. Stock solutions of each compound (10 mM) were freshly prepared in MeCN. Each compound was incubated at a final concentration of 1 μM in preheated buffer (37 °C). The sample solutions were divided into aliquots in glass vials (preheated at 37 °C) for each time point. The samples were maintained at 37 °C in the UPLC/MS autosampler during the study (no shaking). A reference solution of each compound (final concentration: 1 μM) in preheated MeCN was prepared from the stock solutions and maintained at 37 °C in the UPLC/MS autosampler during the study. For each time point, the samples were analyzed directly by LC/MS without any further sample preparation. The samples were analyzed by integrating the corresponding MRM peak areas. The relative compound concentration was calculated by dividing the peak area at each time point by the peak area at t = 0 min. The reference solution was analyzed at the beginning (t = 0 min) and at the end of the study (t = 8 h). The apparent half-life (t1/2) of the disappearance of the compound was calculated using the best fitting equation by GraphPad Prism (GraphPad Software, Inc., USA). The analyses were performed on a Waters ACQUITY UPLC/MS TQD system consisting of a triple quadrupole detector (TQD) MS equipped with an ESI interface and a photodiode array detector. The analyses were run on an ACQUITY UPLC BEH C18 1.7 μm 2.1 × 50 mm column with a VanGuard BEH C18 1.7 μm preolumn at 40 °C. For each compound, the appropriate mobile phase was chosen. ESI was applied in positive mode. Values are the mean of at least two independent experiments performed in two technical replicates.

[2] = Aqueous kinetic solubility assay; assay type: physicochemical; conditions: PBS, pH 7.4
Description: The aqueous kinetic solubility was determined from a 10 mM MeCN stock solution of test compound in Phosphate-Buffered Saline (PBS) at pH 7.4. The study was performed by incubation of an aliquot of 10 mM MeCN stock solution in PBS (pH 7.4) at a target concentration of 250 μM. The incubation was carried out under shaking at 25 °C for 1 h followed by centrifugation at 21100 × g for 30 min. The supernatant was analyzed by UPLC/MS for the quantification of the dissolved compound (in μM) by UV at a specific wavelength (215 nm). […] The UPLC/MS analyses were performed on a Waters ACQUITY UPLC/MS system consisting of a single quadrupole detector (SQD) Mass Spectrometer (MS) equipped with an Electrospray Ionization (ESI) interface and a Photodiode Array Detector (PDA). The PDA range was 210–400 nm. ESI in positive mode was used in the mass scan range of 100–650 Da. The analyses were run on an ACQUITY UPLC BEH C18 column (50 × 2.1 mm ID, particle size 1.7 μm) with a VanGuard BEH C18 precolumn (5 × 2.1 mm ID, particle size 1.7 μm), using 10 mM NH4OAc in H2O at pH 5 adjusted with AcOH (A) and 10 mM NH4OAc in MeCN/H2O (95:5) at pH 5 (B) as the mobile phase. Values are reported as mean values of ≥2 experiments performed.

[3] = In vitro plasma stability study; assay type: in vitro ADME; conditions: mouse plasma
Description: Freshly prepared 10 mM MeCN stock solution of test compound was diluted 50-fold with DMSO/H2O (1:1) and incubated at 37 °C for 2 h with mouse plasma added in 5% DMSO (preheated at 37 °C for 10 min). The final concentration was 2 μM. At each time point (0, 5, 15, 30, 60, and 120 min), 50 μL of incubation mixture was diluted with 200 μL of cold MeCN spiked with 200 nM internal standard followed by centrifugation at 3300 × g for 20 min. The supernatant was further diluted with H2O (1:1) for analysis. The concentration of test compound was quantified by LC/MS/MS on a Waters ACQUITY UPLC/MS TQD system consisting of a TQD MS equipped with an ESI interface. The analyses were run on an ACQUITY UPLC BEH C18 (50 × 2.1 mm ID, particle size 1.7 μm) with a VanGuard BEH C18 precolumn (5 × 2.1 mm ID, particle size 1.7 μm) at 40 °C. For each compound, the appropriate mobile phase was chosen. ESI was applied in positive mode. The response factors, calculated on the basis of the internal standard peak area, were plotted over time. When possible, response vs time profiles were fitted with Prism (GraphPad Software, Inc., USA) to estimate compound t1/2 in plasma. Values are the mean of at least two independent experiments performed in two technical replicates.

[4] = In vitro microsomal stability study; assay type: in vitro ADME; conditions: pH 7.4; mouse liver microsomes; read-out: m-LM t1/2
Description: Freshly prepared 10 mM MeCN stock solution of test compound was preincubated at 37 °C for 15 min with mouse liver microsomes added in 0.1 M Tris HCl buffer (pH 7.4). The final concentration was 4.6 μM. After preincubation, the cofactors (NADPH, G6P, G6PDH, and MgCl2 predissolved in 0.1 M Tris HCl) were added to the incubation mixture, and the incubation was continued at 37 °C for 1 h. At each time point (0, 5, 15, 30, and 60 min), 30 μL of incubation mixture was diluted with 200 μL of cold MeCN spiked with 200 nM internal standard followed by centrifugation at 3300 × g for 15 min. The supernatant was further diluted with H2O (1:1) for analysis. The concentration of the test compound was quantified by LC/MS/MS on a Waters ACQUITY UPLC/MS TQD system consisting of a TQD MS equipped with an ESI interface. The analyses were run on an ACQUITY UPLC BEH C18 (50 × 2.1 mm ID, particle size 1.7 μm) with a VanGuard BEH C18 precolumn (5 × 2.1 mm ID, particle size 1.7 μm) at 40 °C. For each compound, the appropriate mobile phase was chosen. ESI was applied in positive mode. The percentage of test compound remaining at each time point relative to t = 0 was calculated. t1/2 was determined by a one-phase decay equation using a nonlinear regression of compound concentration vs time. Values are the mean of at least two independent experiments performed in two technical replicates.

[5] = supplementary csv, read-out: hAC, IC50
[6] = read-out: mouse plasma stability t1/2
[7] = hAC expressed in HEK-293 cells, read-out: hAC IC50 (μM)±SD

| SMILES | solubility at 1 h [2] [µM] | IC50 (AC; [7]) [µM] | half-life at 1 h, 4.6 µM [4] [min] | half-life at 2 µM ([3]; read-out: m-plasma t1/2) [min] | also measured |
| --- | --- | --- | --- | --- | --- |
| O=C(NCCCCc1ccccc1)n1c(=O)oc2ccncc21 [8a, 2-Oxo-N-(4-phenylbutyl)oxazolo[4,5-c]pyridine-3-carboxamide] |  |  |  |  | IC50 (AC; read-out: hAC IC50): 0.006 µM; half-life at 1 μM ([1]; PBS, pH 7.4): < 15 min |
| O=C(NCCCCc1ccccc1)n1c(=O)oc2cnccc21 [8b, 2-Oxo-N-(4-phenylbutyl)oxazolo[5,4-c]pyridine-1-carboxamide] |  |  |  |  | IC50 (AC; read-out: hAC IC50): 0.003 µM; half-life at 1 μM ([1]; PBS, pH 7.4): < 15 min |
| O=C(NCCCCc1ccccc1)n1c2c(oc1=O)CCNC2 [12b, 2-Oxo-N-(4-phenylbutyl)-4,5,6,7-tetrahydrooxazolo[4,5-c]pyridine-3-carboxamide Hydrochloride] | 82 |  |  |  | IC50 (AC; [5]): 0.247 ± 0.156 µM; half-life at 1 μM ([1]; PBS at pH 7.4): > 480 min; half-life at 2 μM [3, 6]: > 120 min |
| O=C(NCCCCc1ccccc1)n1c2c(oc1=O)CNCC2 [17b, 2-Oxo-N-(4-phenylbutyl)-4,5,6,7-tetrahydrooxazolo[5,4-c]pyridine-1-carboxamide Hydrochloride] | 230 |  |  |  | IC50 (AC; [5]): 0.341 ± 0.012 µM; half-life at 1 μM ([1]; PBS at pH 7.4): > 480 min; half-life at 2 μM [3, 6]: > 120 min |
| CCN1CCN(c2ccc3c(c2)oc(=O)n3C(=O)NCCCCc2ccccc2)CC1 [23g, 6-(4-Ethylpiperazin-1-yl)-2-oxo-N-(4-phenylbutyl)-1,3-benzoxazole-3-carboxamide] | < 1 | 0.056 ± 0.006 |  |  | half-life at 4.6 μM [4]: < 5 min; fold more potent than 23e (hAC) (AC): ~7 fold; half-life at 2 μM ([3]; read-out: m-plasma t1/2): < 5 min |
| CN1CCN(c2ccc3c(c2)oc(=O)n3C(=O)NCCCCc2ccccc2)CC1=O [23j, 6-(4-Methyl-3-oxo-piperazin-1-yl)-2-oxo-N-(4-phenylbutyl)-1,3-benzoxazole-3-carboxamide] | < 1 | 0.092 ± 0.026 | 30 | 20 |  |
| CN1CCN(c2ccc3c(c2)oc(=O)n3C(=O)NCCCCc2ccccc2)C(=O)C1 [23k, 6-(4-Methyl-2-oxo-piperazin-1-yl)-2-oxo-N-(4-phenylbutyl)-1,3-benzoxazole-3-carboxamide] | 20 (≈ 8.45 µg/mL) | 0.052 ± 0.04 |  | 20 | half-life at 4.6 μM [4]: < 5 min; fold more potent than 23e (hAC) (AC): ~7 fold |
| CC(C)CNC(=O)n1c(=O)oc2ccc(C3CCN(C)CC3)cc21 [24c, N-Isobutyl-5-(1-methyl-4-piperidyl)-2-oxo-1,3-benzoxazole-3-carboxamide] | 60 (≈ 19.9 µg/mL) | 0.295 ± 0.06 | 40 | 30 |  |
| CC(C)CNC(=O)n1c(=O)oc2c(C3CCN(C)CC3)cccc21 [compound 25, N-Isobutyl-7-(1-methyl-4-piperidyl)-2-oxo-1,3-benzoxazole-3-carboxamide] | 230 (≈ 76.2 µg/mL) | 0.535 ± 0.073 | 30 | 40 |  |
